A short description of test [1]: Antiproliferative activity against human TNBC cells assessed as inhibition of cell growth. It is filed as functional, Breast carcinoma cell.
The target in test [2] is Protein cereblon/Macrophage migration inhibitory factor (Homo sapiens, UniProt P14174+Q96SW2). The test is described as follows: PROTAC activity at E3 ubiquitin ligase/MIF in human A549 cells assessed as induction of MIF degradation. It is filed as cell-based.
In test [3] the target is T1, Protein cereblon/Cyclin-dependent kinase 9 (Homo sapiens) (UniProt P50750+Q96SW2). Description: PROTAC activity at E3 ubiquitin ligase/CDK9 in human HCT-116 cells assessed as induction of CDK9 degradation at 20 uM measured after 6 hrs by western blot analysis. It is filed as cell-based.
The target in test [4] is T1, Protein cereblon/Cyclin-dependent kinase 9 (Homo sapiens). Description: PROTAC activity at E3 ubiquitin ligase/CDK9 in human MOLT-4 cells assessed as induction of CDK9 degradation at 250 nM by immunoblot analysis. It is filed as cell-based.
For test [5], the target named is Protein cereblon/Bromodomain-containing protein 9 (Homo sapiens, UniProt Q9H8M2+Q96SW2). Description: PROTAC activity at CRBN/BRD9 (unknown origin) assessed as induction of BRD9 degradation. Type of test: protein assay.
A further test relates to MCF7. The test is described as follows: Cytotoxicity against human MCF7 cells assessed as inhibition of cell proliferation measured after 72 hrs by MTT assay. Conditions: MCF7, 72 h. Type of test: functional, cell-based.
For test [6], the target named is von Hippel-Lindau disease tumor suppressor/Haloalkane dehalogenase (Rhodococcus sp, UniProt P40337+P0A3G3). The test is described as follows: PROTAC activity at VHL/HaloTag7-GFP fusion protein (unknown origin) assessed as induction of fusion protein degradation.
Test [7] deals with von Hippel-Lindau disease tumor suppressor/Haloalkane dehalogenase (Rhodococcus sp) (UniProt P40337+P0A3G3). The test is described as follows: PROTAC activity at VHL/HaloTag7-GFP fusion protein (unknown origin) assessed as induction of fusion protein degradation relative to control.
The nature of test [8]: Induction of AR degradation in castrated mouse model xenografted with human VCaP cells at 1 mg/kg. It is filed as functional. A general note: In xenograft studies the graft and the host belong to different species.

SMILES strings stand for the structures.

Regarding `Nc1c(C(=O)Nc2ccc(F)cc2)sc2nc(-c3cccs3)cc(C(F)(F)F)c12`, the “inhibition (INH)” value in [1] turned out to be 47.8%. One may read the DC50 as the concentration at which degradation of the target reaches its halfway point. On to `O=C1CCC(N2C(=O)c3cccc(NCCCCCCCC(=O)Nc4ccc(N5Cc6ccc(O)cc6OC5=O)cc4)c3C2=O)C(=O)N1` (centres undefined), for which the DC50 in test [2] came to 100 nM.

With `O=C1CCC(N2C(=O)c3cccc(OCCCCCOc4ccc(CC(=O)Nc5cc(C6CCC6)[nH]n5)cc4)c3C2=O)C(=O)N1` (centres undefined), in [3], the Activity turned out to be 65%. As for `CC(C)(C)c1cnc(CSc2cnc(NC(=O)C3CCN(CC(=O)NCCOCCOCCOCCNc4cccc5c4C(=O)N(C4CCC(=O)NC4=O)C5=O)CC3)s2)o1` (centres undefined), the Activity in test [4] was 99%. As to `COc1cc(-c2cn(C)c(=O)c(C)c2C)cc(OC)c1CN1CC[C@H](N2CCN(c3ccc(N[C@H]4CCC(=O)NC4=O)cc3F)CC2)C(F)(F)C1` [SENDEGOBRESIB], the 50% degradation concentration (DC50) in test [5] amounted to 2.7 nM.

In general, IC50 refers to the concentration that gives 50% inhibition. `Nc1cccc2c1C(=O)N(C1CCC(=O)NC1=O)C2=O` (centres undefined) [POMALIDOMIDE]: the IC50 in the test on MCF7 was determined as 17000 nM.

As to `Cc1ncsc1-c1ccc(CNC(=O)[C@@H]2C[C@@H](O)CN2C(=O)[C@H](C(C)C)N2Cc3ccccc3C2=O)c(OCCOCCOCCOCCCCCCCl)c1`, in test [6], the DC50 came to 19 nM. Also, the Activity in [7] worked out at 90%. Take `N#Cc1ccc(O[C@H]2CC[C@H](NC(=O)c3ccc(N4CCC(CN5CCN(c6cc7c(cc6F)C(=O)N(C6CCC(=O)NC6=O)C7=O)CC5)CC4)nn3)CC2)cc1Cl` (some centres undefined) [BAVDEGALUTAMIDE]: the Activity in test [8] is recorded as 90%.

The values are drawn from ChEMBL document CHEMBL5620358, “Proteolysis-targeting chimeras in biotherapeutics: Current trends and future applications” (Eur J Med Chem, 2023).
